Assay results: patent US10233200B2, “Organomodified monosilyl compound, its preparation and applications thereof” (Momentive Performance Materials Inc., priority 2017, dated 2019)

How the values were obtained:
canola leaf = assay: Uptake of [C14]-2,4-D DMA salt into canola leaf; format: in vivo; conditions: no adjuvant compound (0 % wt/vol), 2,4-D alone
Method: The uptake of [C^14]-2,4-dichlorophenoxyacetic acid, dimethylamine salt (2,4-D DMA salt) (1% a.e./100 L/ha) was determined in canola at 2 HAT and 24 HAT (Hours After Treatment) according to the method described by Lui, in Pro. 18th Asian-Pacific Weed Sci. Soc. Conf., pp. 561-566. Liu, Z Q; 2001.

[1] = Spreading of a 10 μL droplet of surfactant solution on polystyrene Petri dishes; format: physicochemical; conditions: 10 μL droplet on polystyrene, after 30 seconds, 22 to 25° C., RH 50-70%
Method: Spreading was determined by applying a 10 μL droplet, of surfactant solution to polystyrene Petri dishes (Fisher Scientific) and measuring the spread diameter (mm) after 30 seconds, at a relative humidity between 50 and 70% (at 22 to 25° C.). The solution was applied with an automatic pipette to provide droplets of reproducible volume. Deionized water that was further purified with a Millipore filtration system was used to prepare the surfactant solutions.

| Compound | Uptake % (2 HAT) (canola leaf; 2 HAT) [e %] | Uptake % (24 HAT) (canola leaf; 24 HAT) [a %] | Spread Diameter ([1]; 0.05 weight % compound) [mm] | Spread Diameter ([1]; 0.1 weight % compound) [mm] | Spread Diameter ([1]; 0.2 weight % compound) [mm] |
| --- | --- | --- | --- | --- | --- |
| CNC.O=C(O)COc1ccc(Cl)cc1Cl [2,4-D alone, 2,4-dichlorophenoxyacetic acid, dimethylamine salt] | 12.1 | 70.2 | – | – | – |
| (H3C)3CCH2CH2—Si(CH3)2—CH2CH2CH2—O—CH2CH(OH)CH2N^+(CH3)2—CH2CH2CH2OH [Ex. 8, (H3C)3CCH2CH2—Si(CH3)2—CH2CH2CH2—O—CH2CH(OH)CH2N^+(CH3)2—CH2CH2CH2OH [(CH2OH)2(CH3)C—COO^−]] | – | – | 10 | 21 | 33 |
